According to patent US20130196050A1, “SALTY TASTE ENHANCER” (AJINOMOTO CO., INC., priority 2010, published 2013):

Molecular target: T1, Human ENaC δ, β and γ subunit (Homo sapiens, UniProt P51168+P51170+P51172)
T1 construct: expressed in transfected cells; host or cells: Xenopus laevis (African clawed frog) oocytes injected with cRNA
T1 sequence (P51172 1-638 isoform P51172-1): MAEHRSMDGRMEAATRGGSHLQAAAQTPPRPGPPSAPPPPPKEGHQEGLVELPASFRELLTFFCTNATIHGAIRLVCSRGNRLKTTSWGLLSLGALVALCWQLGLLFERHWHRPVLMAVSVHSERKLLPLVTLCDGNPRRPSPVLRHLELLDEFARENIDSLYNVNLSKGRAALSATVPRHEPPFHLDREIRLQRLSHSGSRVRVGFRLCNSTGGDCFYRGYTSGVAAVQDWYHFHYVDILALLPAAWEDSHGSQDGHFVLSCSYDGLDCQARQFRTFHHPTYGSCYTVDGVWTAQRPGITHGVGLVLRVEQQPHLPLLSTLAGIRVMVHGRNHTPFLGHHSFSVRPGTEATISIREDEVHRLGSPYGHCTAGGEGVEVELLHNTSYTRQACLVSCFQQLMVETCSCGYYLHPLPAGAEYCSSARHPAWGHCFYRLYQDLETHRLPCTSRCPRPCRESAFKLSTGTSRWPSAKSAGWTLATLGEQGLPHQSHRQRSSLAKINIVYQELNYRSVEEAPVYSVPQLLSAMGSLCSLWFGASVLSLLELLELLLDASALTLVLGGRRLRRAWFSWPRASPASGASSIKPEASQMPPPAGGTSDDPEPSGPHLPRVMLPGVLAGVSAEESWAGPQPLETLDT
T1 sequence (P51168 1-640): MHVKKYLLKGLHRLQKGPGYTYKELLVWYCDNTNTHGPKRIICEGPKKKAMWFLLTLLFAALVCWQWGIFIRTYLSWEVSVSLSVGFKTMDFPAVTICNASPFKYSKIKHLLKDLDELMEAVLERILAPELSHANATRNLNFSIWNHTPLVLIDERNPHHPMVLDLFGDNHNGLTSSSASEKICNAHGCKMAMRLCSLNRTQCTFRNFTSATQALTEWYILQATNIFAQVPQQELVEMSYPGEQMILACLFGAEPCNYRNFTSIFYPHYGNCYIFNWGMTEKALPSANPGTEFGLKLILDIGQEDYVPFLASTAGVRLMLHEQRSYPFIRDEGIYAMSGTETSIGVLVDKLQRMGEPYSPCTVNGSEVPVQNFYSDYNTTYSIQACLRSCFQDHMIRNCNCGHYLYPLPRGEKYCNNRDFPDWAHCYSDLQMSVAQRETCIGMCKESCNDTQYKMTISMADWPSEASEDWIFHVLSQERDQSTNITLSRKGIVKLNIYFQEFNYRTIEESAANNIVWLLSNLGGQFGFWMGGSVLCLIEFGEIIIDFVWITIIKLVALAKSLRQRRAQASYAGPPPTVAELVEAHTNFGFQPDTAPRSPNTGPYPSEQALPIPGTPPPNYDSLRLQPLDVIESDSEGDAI
T1 sequence (P51170 1-649): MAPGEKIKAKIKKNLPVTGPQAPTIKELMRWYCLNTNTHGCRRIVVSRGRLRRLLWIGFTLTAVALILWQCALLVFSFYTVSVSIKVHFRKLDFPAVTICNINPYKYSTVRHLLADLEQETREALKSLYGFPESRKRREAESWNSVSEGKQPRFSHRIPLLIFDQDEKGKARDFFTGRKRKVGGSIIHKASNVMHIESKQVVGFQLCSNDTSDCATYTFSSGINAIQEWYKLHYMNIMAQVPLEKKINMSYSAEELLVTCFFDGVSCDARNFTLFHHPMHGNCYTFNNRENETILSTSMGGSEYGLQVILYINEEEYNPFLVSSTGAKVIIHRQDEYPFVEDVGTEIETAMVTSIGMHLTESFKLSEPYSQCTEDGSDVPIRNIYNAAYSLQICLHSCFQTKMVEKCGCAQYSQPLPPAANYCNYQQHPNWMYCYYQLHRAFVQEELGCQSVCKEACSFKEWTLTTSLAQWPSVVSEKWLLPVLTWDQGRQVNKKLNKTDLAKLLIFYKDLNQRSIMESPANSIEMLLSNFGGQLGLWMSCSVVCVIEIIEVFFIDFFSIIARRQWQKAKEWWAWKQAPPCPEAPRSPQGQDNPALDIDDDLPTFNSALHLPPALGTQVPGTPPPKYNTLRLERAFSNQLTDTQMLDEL
Assay: Measurement of ENaC activation potency (two electrode voltage clamp current in ENaC-expressing oocyte)
Format: cell-based
Conditions: lowest concentration increasing the current value by not less than 10% vs before addition
Protocol: ENaC activation current value, namely, the inward current in ENaC-expressing oocyte was measured as follows.
According to the method described in Motonao Nakamura, Takao Shimizu: Experiment of African clawed frog oocyte, Experimental Medicine Vol. 11, No. 3, 224-232 (1993), oocyte was collected from African clawed frog, […], and the current value was measured by a Two Electrode Voltage Clamp technique. In the present invention, ND96 (96 mM NaCl, 2 mM KCl, 1 mM MgCl2, 5 mM Hepes, 1.8 mM CaCl2, pH 7.6) was used instead of MBS buffer in the above-mentioned document. Injector NANOLITER 2000 manufactured by World Precision Instruments was used for microinjection, OpusXpress 6000A manufactured by Molecular Devices was used for current value measurement by a Two Electrode Voltage Clamp technique, and Clampfit 10.2 software manufactured by Molecular Devices was used for data analysis.
Human ENaC δ, β and γ subunit genes shown by SEQ ID NOs: 1, 2 and 3, respectively, in the Sequence Listing were each cloned into a plasmid vector, and used as a template DNA for cRNA synthesis. cRNA was synthesized using MEGAscript kit manufactured by Ambion and according to the method of the manual of the manufacturer.
A mixture of the same amount of ENaC δ subunit cRNA (0.4 to 0.8 μg/μL), and β and γ subunits cRNA (0.4 μg/μL) was injected into the oocyte of African clawed frog at 27.6 nL per oocyte, and the oocyte was cultured for 16 hours to 72 hours. Thereafter, the oocyte was set on a measuring apparatus OpusXpress 6000A, the electrodes were inserted into the oocyte, the voltage was clamped at a level lower by −30 mV than the resting membrane potential by a Two Electrode Voltage Clamp technique, and the current value was measured.
To measure the ENaC activation potency, oocyte was stimulated with each test compound, and the minimum effective dose (hereinafter to be abbreviated as MED) of the compound at the time point when the electric current started to increase was measured. In this case, the minimum effective dose of the stimulation compound that increased the current value by not less than 10%, as compared to the current value before addition of the compound and without stimulation, was taken as MED. A smaller MED means higher ENaC activation potency.
Each test compound was directly dissolved in ND96, or first dissolved in dimethyl sulfoxide (DMSO) to 100 mM, and then prepared by diluting the solution with ND96 to a concentration used for the evaluation. The concentration of the test compound in ND96 was prepared to various concentrations within the range of 0.1 nM to 300 μm.
ND96 as a perfusion fluid was flowed at a rate of 0.5 mL/min through the measuring apparatus OpusXpress 6000A on which ENaC-expressing oocyte was set, the perfusion fluid was temporarily stopped every 3 minutes to add a test compound solution (0.25 mL) dissolved in ND96 at a rate of 0.5 mL/minute. In this way, the test compound was contacted with ENaC-expressing oocyte, and whether ENaC is activated by the compound was examined by measuring the current value. After addition of the test compound, feeding of the perfusion fluid was resumed to wash away the compound to be ready for the next addition of the compound.
The compound was added successively from a low concentration to a high concentration to stimulate ENaC-expressing oocyte. The concentrations actually added was, for example, 1 nM, 3 nM, 10 nM, 30 nM, 100 nM, 300 nM; 1 μM, 3 μM, 10 μm, 30 μm, 100 μm, 300 μm; 1.2 μM, 6 μM, 30 μm, 150 μm of one test compound. The compound was added from low concentrations to high concentrations at 3 minute intervals. The first compound was added from a low concentration to a high concentration, then the second and the third compounds were similarly added successively to the same oocyte, and changes in the current value were measured. The current value was continuously measured from the start to the end of the experiment. […]

Structure (SMILES)	MED value (minimum effective dose)
COc1cccc(OC)c1C(=O)NCCc1c[nH]c2ccc(O)cc12 [Example 25]	3 µM
O=C(N[C@@H](Cc1ccccc1)C(=O)O)c1c(O)cccc1O [Example 82]	1 µM
Cc1cc(O)c(C(=O)N[C@@H](CCc2ccccc2)C(=O)O)c(O)c1 [Example 117]	0.3 µM
O=C(N[C@H](CO)Cc1c[nH]c2ccccc12)c1c(O)cccc1O [Example 14]	1 µM
O=C(NCCc1c[nH]c2ccc(O)cc12)c1c(Cl)cccc1Cl [Example 27]	3 µM
O=C(NCCc1c[nH]c2ccccc12)c1cc(O)ccc1O [Example 42]	1 to 3 µM
O=C(N[C@@H](CCc1ccccc1)C(=O)O)c1c(O)cccc1O [Example 83]	0.3-1^ μM
O=C(NCCc1c[nH]c2ccccc12)c1cc(Br)ccc1O [Example 95]	1 µM
N[C@@H](Cc1c[nH]c2ccccc12)C(=O)Nc1c(O)cccc1O [Example 22]	3 µM
CC(Cc1ccccc1)(NC(=O)CCc1ccccc1)C(=O)O (centres unmarked) [Example 75]	3 to 10 µM
Cc1cc(O)c(C(=O)N[C@@H](Cc2c[nH]c3ccccc23)C(=O)O)c(O)c1 [Example 113]	0.3 µM
COC(=O)[C@H](CCc1ccccc1)NC(=O)c1cc(Br)ccc1O [Example 98]	10 µM
O=C(N[C@@H](Cc1c[nH]c2ccccc12)C(=O)O)c1c(O)cccc1O [Example 3]	0.6 µM
O=C(NC(Cc1c[nH]c2ccccc12)C(=O)O)c1cccc(O)c1O (centres unmarked) [Example 39]	1 µM
COC(=O)[C@H](Cc1c[nH]c2ccccc12)NC(=O)c1c(O)cc(O)cc1O [Example 120]	0.3 µM
O=C(N[C@@H](Cc1ccccc1)C(=O)O)c1c(O)cc(O)cc1O [Example 123]	10 µM

Structure (SMILES)	MED value (minimum effective dose)
O=C(O)c1ccccc1C(=O)NCCc1c[nH]c2ccc(O)cc12 [Example 9]	3 µM
CC(Cc1c[nH]c2ccccc12)(NC(=O)c1c(O)cccc1O)C(=O)O (centres unmarked) [Example 18]	3 µM
O=C(NCCc1c[nH]c2ccc(O)cc12)c1ccc(Br)cc1O [Example 104]	3 µM
Cc1ccc2[nH]cc(CC(NC(=O)CCc3ccccc3)C(=O)O)c2c1 (centres unmarked) [Example 73]	1 to 3 µM
CC(C)(C)OC(=O)N[C@@H](Cc1c[nH]c2ccccc12)C(=O)Nc1c(O)cccc1O [Example 20]	10 µM
Cn1cc(C[C@H](NC(=O)CCc2ccccc2)C(=O)O)c2ccccc21 [Example 71]	1 to 3 µM
COC(=O)[C@H](Cc1c[nH]c2ccccc12)NC(=O)c1c(O)cccc1O [Example 1, (S)-Methyl 2-(2,6-dihydroxybenzamido)-3-(1H-indol-3-yl)propanoate]	0.6 µM
Cc1cc(O)c(C(=O)NCCc2c[nH]c3ccc(O)cc23)c(O)c1 [Example 29]	1 to 3 µM
Cc1cc(O)c(C(=O)NCCc2c[nH]c3ccccc23)c(O)c1 [Example 124]	3 µM
COC(=O)C(C)(Cc1c[nH]c2ccccc12)NC(=O)c1c(O)cccc1O (centres unmarked) [Example 16]	3 µM
COC(=O)[C@H](Cc1ccccc1)NC(=O)c1c(O)cc(O)cc1O [Example 122]	1 µM
O=C(N[C@@H](Cc1c[nH]c2ccccc12)C(=O)O)c1ccc(Br)cc1O [Example 110]	0.1 to 0.3 µM
COC(=O)[C@H](Cc1c[nH]c2ccc(O)cc12)NC(=O)c1c(O)cccc1O [Example 10]	3 µM
COC(=O)[C@H](Cc1c[nH]c2ccccc12)NC(=O)c1cc(Br)ccc1O [Example 92]	3 to 10 µM
COC(=O)[C@H](Cc1ccccc1)NC(=O)c1c(O)cc(C)cc1O [Example 118]	10 µM
COC(=O)[C@H](Cc1c[nH]c2ccccc12)NC(=O)c1c(O)cc(C)cc1O [Example 112]	1 µM
